Where two headings read alike, the source gives them in different places.
Tests used:
Assay type in all cases: cell-based, human
[1] = test system: SW-620; assay: ATP luminescence proliferation assay, SW-620
Experimental: (§1) This example generally describes the procedures used to assay the antiproliferative activity of compounds of this invention or their conjugates. Human tumor cell lines were obtained from the American Type Culture Collection (ATCC), P.O. Box 1549, Manassas, Va. 20108, USA, and cultured according to instruction from the ATCC. Cells were seeded at 1.0×10^3 or 1.0×10^4 cells/well in 96-well plates for 3 h for ATP assays or ^3H thymidine assays, respectively. 1:3 serial dilutions of free (unconjugated) compounds or their conjugates were added to the wells. Plates were allowed to incubate for 24 to 72 h. The ^3H thymidine plates were pulsed with 1.0 μCi of ^3H-thymidine per well for the last 24 hours of the total incubation period, harvested, and read on a Top Count Scintillation Counter (Packard Instruments, Meriden, Conn.). ATP levels in the ATP plates were measured using the […]-GLO® Luminescent Cell Viability kit following the manufacturer's manual and read on a GLOMAX® 20/20 luminometer (both from Promega, Madison, Wis., USA). The EC50 values—the concentration at which an agent inhibits or reduces cell proliferation by 50% —were determined using PRISM™ software, version 4.0 (GraphPad Software, La Jolla, Calif., USA).
(§2) Using the ^3H thymidine or the ATP luminescence assay, or both, the activities of compounds of this invention were assayed against the following cancer cell lines: HCT-15 (colorectal cancer, multi-drug resistant (MDR)); Hep3B (liver cancer); LNCaP (prostate cancer, androgen receptor positive (AR^+)); MDA-MB-231 (breast cancer, estrogen receptor, progesterone receptor, and Her2 negative (triple negative)); A2058 (melanoma); U-87 MG (glioblastoma); NCI-H460 (NSCLC); A549 (NSCLC); HPAC (pancreatic cancer, primary); PC3 (prostate cancer, AR); BT474 (breast cancer, Her2 highly positive (Her2hi)); SKOV3 (ovarian cancer, Her2hi); 786-O (renal cancer); UO-31 (renal cancer, MDR); NCI-H740 (SCLC); DMS53 (SCLC); SK-BR3 (breast cancer, Her2hi); ZR-75 (breast cancer, estrogen receptor positive); OVCAR3 (ovarian cancer); HL-60 (APL); OVCAR8/Adr (ovarian cancer, MDR); CEM-Cl (ALL); Nomo-1 (AML); RPMI-8226 (MM)); Raji (lymphoma); SW-480 (colorectal cancer, metastatic); SW-620 (colorectal cancer); and H226 (lung cancer). (Not all compounds were assayed against all cell lines.)
(§3) Table 3 provides the data for the ATP luminescence proliferation assays, with an incubation period of 48, 72, or 96 h, as noted.

[2] = test system: H740; assay: 3H thymidine proliferation assay, H740
Experimental: as §1, §2
(§4) Table 2 provides the data for proliferation assays using the ^3H thymidine method, with an incubation period of 72 h.

[3] = test system: A2058; assay: 3H thymidine proliferation assay, A2058; conditions: 3H thymidine method, 72 h incubation
Experimental: as §1, §2, §4

[4] = test system: Raji; assay: ATP luminescence proliferation assay, Raji
Experimental: as §1, §2, §3

[5] = test system: Raji; assay: 3H thymidine proliferation assay, Raji
Experimental: as §1, §2, §4

[6] = test system: PC3; assay: ATP luminescence proliferation assay, PC3
Experimental: as §1, §2, §3

[7] = test system: A549; assay: 3H thymidine proliferation assay, A549
Experimental: as §1, §2, §4

[8] = test system: PC3; assay: 3H thymidine proliferation assay, PC3
Experimental: as §1, §2, §4

[9] = test system: SK-BR3; assay: 3H thymidine proliferation assay, SK-BR3; conditions: 3H thymidine method, 72 h incubation
Experimental: as §1, §2, §4

[10] = test system: SKOV3; assay: 3H thymidine proliferation assay, SKOV3
Experimental: as §1, §2, §4

[11] = test system: HL-60; assay: 3H thymidine proliferation assay, HL-60
Experimental: as §1, §2, §4

[12] = test system: HCT-15; assay: ATP luminescence proliferation assay, HCT-15
Experimental: as §1, §2, §3

[13] = test system: RPMI-8226; assay: ATP luminescence proliferation assay, RPMI-8226
Experimental: as §1, §2, §3

[14] = test system: OVCAR3; assay: 3H thymidine proliferation assay, OVCAR3
Experimental: as §1, §2, §4

[15] = test system: NCI-H460; assay: ATP luminescence proliferation assay, NCI-H460
Experimental: as §1, §2, §3

[16] = test system: OVCAR3; assay: ATP luminescence proliferation assay, OVCAR3
In short: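 Cells seeded at 1.0×10^3 cells/well for 3 h, then exposed to 1:3 serial dilutions of free compounds or conjugates for 48, 72 or 96 h as noted. ATP measured by Glo luminescent viability kit; EC50 taken as concentration reducing proliferation by 50%.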

[17] = test system: UO-31; assay: 3H thymidine proliferation assay, UO-31
Experimental: as §1, §2, §4

[18] = test system: ZR-75; assay: ATP luminescence proliferation assay, ZR-75
Experimental: as §1, §2, §3

[19] = test system: U-87 MG; assay: ATP luminescence proliferation assay, U-87 MG
Experimental: as §1, §2, §3

[20] = test system: CEM-Cl; assay: ATP luminescence proliferation assay, CEM-C1
Experimental: as §1, §2, §3

CC[C@H](C)[C@H](NC(=O)[C@H]1CCCCN1C)C(=O)N(C)[C@H](C[C@@H](OC)c1nc(C(=O)N[C@@H](Cc2ccccc2)C(=O)OC)cs1)C(C)C [Compound 16]
EC50 ([1]; ATP luminescence, SW-620, 96 h incubation, read-out: EC50 SW-620 (96 h)): 29 nM | EC50 ([2]; 3H thymidine method, 72 h incubation, read-out: EC50, H740): > 100 nM | EC50 [3]: > 100 nM | EC50 ([4]; ATP luminescence, 72 h incubation, read-out: EC50 Raji (72 h)): 3 nM | EC50 ([5]; 3H thymidine method, 72 h incubation, read-out: EC50, Raji): 28 nM | EC50 ([6]; ATP luminescence, PC3, 48 h incubation, read-out: EC50 PC3 (48 h)): > 100 nM | EC50 ([7]; 3H thymidine method, 72 h incubation, read-out: EC50, A549): > 100 nM | EC50 ([8]; 3H thymidine method, 72 h incubation, read-out: EC50, PC3): > 100 nM | EC50 [9]: > 100 nM | EC50 ([10]; 3H thymidine method, 72 h incubation, read-out: EC50, SKOV3): 44 nM | EC50 ([11]; 3H thymidine method, 72 h incubation, read-out: EC50, HL-60): 8.9 nM | EC50 ([12]; ATP luminescence, HCT-15, 48 h incubation, read-out: EC50 HCT-15 (48 h)): 157 nM | EC50 ([13]; ATP luminescence, RPMI-8226, 72 h incubation, read-out: EC50 RPMI-8226 (72 h)): 15 nM | EC50 ([14]; 3H thymidine method, 72 h incubation, read-out: EC50, OVCAR3): > 100 nM | EC50 ([15]; ATP luminescence, NCI-H460, 48 h incubation, read-out: EC50 NCI-H460 (48 h)): 69 nM | EC50 ([16]; ATP luminescence, OVCAR3, 48 h incubation, read-out: EC50 OVCAR3 (48 h)): > 100 nM | EC50 ([17]; 3H thymidine method, 72 h incubation, read-out: EC50, UO-31): > 100 nM | EC50 ([18]; ATP luminescence, ZR-75, 48 h incubation, read-out: EC50 ZR-75 (48 h)): 11 nM | EC50 ([19]; ATP luminescence, 72 h incubation, read-out: EC50 U-87 MG (72 h)): > 100 nM | EC50 ([20]; ATP luminescence, CEM-C1, 72 h incubation, read-out: EC50 CEM-C1 (72 h)): 2.5 nM

CCCC(NC(=O)c1csc([C@@H](C[C@H](C(C)C)N(C)C(=O)[C@@H](NC(=O)[C@H]2CCCCN2C)[C@@H](C)CC)OC)n1)C(=O)OC (stereo partly shown) [Compound 17]
EC50 ([1]; Homo sapiens, SW-620, 96 h, read-out: EC50 SW-620 (96 h), ATP luminescence, SW-620, 96 h incubation): 65 nM | EC50 ([2]; Homo sapiens, read-out: EC50, H740, 3H thymidine method, 72 h incubation): 32 nM | EC50 ([3]; Homo sapiens, A2058): > 100 nM | EC50 ([4]; Homo sapiens, 72 h, read-out: EC50 Raji (72 h), ATP luminescence, Raji, 72 h incubation): 27 nM | EC50 ([5]; Homo sapiens, Raji, read-out: EC50, Raji, 3H thymidine method, 72 h incubation): 53 nM | EC50 ([6]; Homo sapiens, PC-3, 48 h, read-out: EC50 PC3 (48 h), ATP luminescence, PC3, 48 h incubation): > 100 nM | EC50 ([7]; Homo sapiens, A549, read-out: EC50, A549, 3H thymidine method, 72 h incubation): > 100 nM | EC50 ([8]; Homo sapiens, PC-3, read-out: EC50, PC3, 3H thymidine method, 72 h incubation): 82 nM | EC50 ([9]; Homo sapiens, SK-BR-3): > 100 nM | EC50 ([10]; Homo sapiens, SK-OV-3, read-out: EC50, SKOV3, 3H thymidine method, 72 h incubation): 91 nM | EC50 ([11]; Homo sapiens, HL-60, read-out: EC50, HL-60, 3H thymidine method, 72 h incubation): 17 nM | EC50 ([12]; Homo sapiens, HCT-15, 48 h, read-out: EC50 HCT-15 (48 h), ATP luminescence, HCT-15, 48 h incubation): 443 nM | EC50 ([13]; Homo sapiens, RPMI-8226, 72 h, read-out: EC50 RPMI-8226 (72 h), ATP luminescence, RPMI-8226, 72 h incubation): 15 nM | EC50 ([14]; Homo sapiens, OVCAR-3, read-out: EC50, OVCAR3, 3H thymidine method, 72 h incubation): > 100 nM | EC50 ([15]; Homo sapiens, NCI-H460, 48 h, read-out: EC50 NCI-H460 (48 h), ATP luminescence, NCI-H460, 48 h incubation): 69 nM | EC50 ([16]; Homo sapiens, OVCAR-3, 48 h, read-out: EC50 OVCAR3 (48 h), ATP luminescence, OVCAR3, 48 h incubation): > 100 nM | EC50 ([17]; Homo sapiens, UO-31, read-out: EC50, UO-31, 3H thymidine method, 72 h incubation): > 100 nM | EC50 ([18]; Homo sapiens, ZR75, 48 h, read-out: EC50 ZR-75 (48 h), ATP luminescence, ZR-75, 48 h incubation): 24 nM | EC50 ([19]; Homo sapiens, 72 h, read-out: EC50 U-87 MG (72 h), ATP luminescence, U-87 MG, 72 h incubation): 22 nM | EC50 ([20]; Homo sapiens, CEM/C1, 72 h, read-out: EC50 CEM-C1 (72 h), ATP luminescence, CEM-C1, 72 h incubation): 26 nM
